Source: PubChem BioAssay (NCI)
Several values for one entry are separate records, joined by “and”; a condition that tells them apart may be missing. Equal values may be shown once.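 Five concentrations, 48 hours, 96-well plates. Here, GI50 denotes the concentration required for 50% inhibition of growth. Definition used: TGI = concentration required for complete inhibition of growth.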

What was measured:
Test in all cases: growth of human tumour cells (NCI), 48 h
786-0 renal = system: 786-0 renal
A549 NSCLC = system: A549 NSCLC
BT-549 breast = system: BT-549 breast
EKVX NSCLC = system: EKVX NSCLC
HOP-92 NSCLC = system: HOP-92 NSCLC
HT29 colon = system: HT29 colon
IGROV1 ovarian = system: IGROV1 ovarian
K-562 leukemia = system: K-562 leukemia
KM12 colon = system: KM12 colon
NCI-H226 lung = system: NCI-H226 lung
NCI-H23 lung = system: NCI-H23 lung
NCI-H460 lung = system: NCI-H460 lung
SK-MEL-5 melanoma = system: SK-MEL-5 melanoma
SK-OV-3 ovarian = system: SK-OV-3 ovarian
SNB-75 CNS = system: SNB-75 CNS
UACC-257 melanoma = system: UACC-257 melanoma

| Compound | TGI (786-0 renal) | TGI (A549 NSCLC) | TGI (BT-549 breast) | TGI (EKVX NSCLC) | TGI (HOP-92 NSCLC) | TGI (HT29 colon) | TGI (IGROV1 ovarian) | TGI (K-562 leukemia) | TGI (KM12 colon) | TGI (NCI-H226 lung) | TGI (NCI-H23 lung) | TGI (NCI-H460 lung) | TGI (SK-MEL-5 melanoma) | TGI (SK-OV-3 ovarian) | TGI (SNB-75 CNS) | TGI (UACC-257 melanoma) | GI50 (A549 NSCLC) | GI50 (EKVX NSCLC) | GI50 (KM12 colon) |
| --- | --- | --- | --- | --- | --- | --- | --- | --- | --- | --- | --- | --- | --- | --- | --- | --- | --- | --- | --- |
| Cc1ccc([N+](=O)[O-])cc1S(=O)(=O)Nc1ccc(C2=NN(S(=O)(=O)c3cc([N+](=O)[O-])ccc3C)C(c3ccccc3)C2)cc1 (stereo not drawn) | > 100 µM | > 100 µM | 57.2 µM | > 100 µM | > 100 µM | > 100 µM | > 100 µM | > 100 µM | > 100 µM | > 100 µM | 60.5 µM | 55.5 µM | > 100 µM | > 100 µM | > 100 µM | 74.7 µM | – | – | – |
| N#Cc1ccc(C(O)C(F)(F)c2nc3ccccc3o2)cc1 (stereo not drawn) | > 100 µM | – | > 100 µM | > 100 µM | > 100 µM | > 100 µM | > 100 µM | 45.7 µM | > 100 µM | > 100 µM | > 100 µM | > 100 µM | > 100 µM | > 100 µM | > 100 µM | > 100 µM | – | – | – |
| COc1ccc(N=c2oc3ccccc3cc2C(N)=O)cc1 | 68.8 µM | > 100 µM | > 100 µM | > 100 µM | > 100 µM | > 100 µM | > 100 µM | > 100 µM | > 100 µM | > 100 µM | > 100 µM | > 100 µM | > 100 µM | 47.7 µM | > 100 µM | > 100 µM | – | – | – |
| COc1cc2c(cc1OC)OC(c1c(OC)ccc(OC)c1O)CC2 (stereo not drawn) | > 100 µM | > 100 µM | > 100 µM | > 100 µM | > 100 µM | > 100 µM | > 100 µM | > 100 µM | > 100 µM | > 100 µM | > 100 µM | > 100 µM | > 100 µM | > 100 µM | > 100 µM | > 100 µM | – | – | – |
| CCOC1CN=C(Nc2cccc3ccccc23)S1 (stereo not drawn) | > 10 µM | > 10 µM | > 10 µM | > 10 µM | > 10 µM | > 10 µM | > 10 µM | > 10 µM | > 10 µM | > 10 µM | > 10 µM | > 10 µM | > 10 µM | > 10 µM | > 10 µM | > 10 µM | – | – | – |
| Cc1cc(S(=O)(=O)Nc2n[nH]c(-c3ccc(Cl)cc3)n2)c(SSc2cc(Cl)c(C)cc2S(=O)(=O)Nc2n[nH]c(-c3ccc(Cl)cc3)n2)cc1Cl | > 100 µM | > 100 µM | > 100 µM | 89.6 µM | 76.8 µM | 57.2 µM | 69.2 µM | 62.3 µM | 77.4 µM | 73.3 µM | > 100 µM | 62.4 µM | 86.8 µM | > 100 µM | 76.1 µM | > 100 µM | – | – | – |
| COc1ccc2c3c1OC1C(F)C=CC4(O)C(C2)NCCC314 (stereo not drawn) | 3.27 µM | 23.1 µM | 6.66 µM | 11 µM | 20.2 µM | 10.9 µM | 20.3 µM | > 100 µM | 13 µM | 30.8 µM | 6.64 µM | 21.4 µM | 16.1 µM | 10.3 µM | 6.58 µM | 24.1 µM | – | – | – |
| NC1N=C(c2ccc(Cl)cc2)C2=C(N1)c1ccccc1CC2 (stereo not drawn) | > 73.1 µM | > 80.7 µM | > 100 µM | > 100 µM | > 100 µM | 28.4 µM | > 57.1 µM | > 26.1 µM | > 67 µM | 54.3 µM | > 100 µM | > 100 µM | > 56.3 µM | > 100 µM | > 22.7 µM | > 100 µM | – | – | – |
| Cc1cc(NC2=CC(=O)C(=O)c3ccccc32)no1 | 30.4 µM | 19.4 µM | 13.4 µM | 31.5 µM | 30.1 µM | 28.3 µM | 21.8 µM | 20.1 µM | 29.7 µM | 35.9 µM | 39.8 µM | 23.3 µM | 6.57 µM | 40.3 µM | 23 µM | 16.7 µM | – | – | – |
| Nc1nc(Cl)cc(NCC2(O)CCC2)n1 | > 100 µM | > 100 µM | > 100 µM | > 100 µM | > 100 µM | > 100 µM | > 100 µM | > 100 µM | > 100 µM | > 100 µM | > 100 µM | > 100 µM | > 100 µM | > 100 µM | > 100 µM | > 100 µM | – | – | – |
| CC1OC(OC2C(OC(=O)[C@]34CCC(C)(C)C[C@H]3C3=CC[C@@H]5[C@@]6(C)CC[C@H](OC7OC(C(=O)O)C(O)C(O)C7O)C(C)(C)[C@@H]6CC[C@@]5(C)[C@]3(C)C[C@H]4O)OCC(O)C2O)C(O)C(O)C1OC1OCC(O)C(O)C1O (stereo partly drawn) | 28.8 µM and 26.1 µM | 25.3 µM and 20.4 µM | 26.9 µM and 29.8 µM | 21.3 µM and 13 µM | 26.9 µM and 24.4 µM | 20.2 µM and 17 µM | 31.5 µM and 27.8 µM | 35.4 µM and 36.3 µM | 22.3 µM and 14.2 µM | 19.2 µM and 25.9 µM | 18.2 µM and 20.7 µM | 48.3 µM and 33.7 µM | 30.5 µM and 34.7 µM | 33.1 µM and 32 µM | 29.9 µM and 31.3 µM | 32.6 µM and 34.1 µM | 11.8 µM and 5.48 µM | 7.47 µM and 3.7 µM | 9.85 µM and 3.45 µM |
